Experiments:
[1] = target: T1, β1,3-N-acetylglucosaminyltransferase 2 (B3GNT2) (Homo sapiens, UniProt Q9NY97); assay: crystal structure ([…] Å, soak); binary-complex dissociation constant from UDP-Glo kinetics; format: biochemical
T1 construct: luminal domain, Lys45-Cys397 (crystal); Lys29-Cys397 (kinetics)
T1 sequence (Q9NY97 29-397): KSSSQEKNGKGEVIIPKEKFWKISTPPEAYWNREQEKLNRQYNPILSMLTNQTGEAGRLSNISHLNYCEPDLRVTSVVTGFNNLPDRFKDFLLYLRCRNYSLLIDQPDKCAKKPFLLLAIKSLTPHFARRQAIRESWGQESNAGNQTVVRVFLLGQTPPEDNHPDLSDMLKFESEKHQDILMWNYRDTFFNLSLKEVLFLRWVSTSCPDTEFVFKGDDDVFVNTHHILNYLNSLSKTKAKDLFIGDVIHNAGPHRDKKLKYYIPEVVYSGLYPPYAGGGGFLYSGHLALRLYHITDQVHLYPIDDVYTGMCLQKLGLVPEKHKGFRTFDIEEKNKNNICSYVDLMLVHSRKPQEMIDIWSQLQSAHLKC

[2] = target: T2, β1,3-N-acetylglucosaminyltransferase 2 (B3GNT2) (Homo sapiens, UniProt Q9NY97); assay: crystal structure ([…] Å, soak) and SPR steady-state affinity; format: binding
T2 construct: luminal domain, Lys45-Cys397 (crystal)
T2 sequence (Q9NY97 45-397): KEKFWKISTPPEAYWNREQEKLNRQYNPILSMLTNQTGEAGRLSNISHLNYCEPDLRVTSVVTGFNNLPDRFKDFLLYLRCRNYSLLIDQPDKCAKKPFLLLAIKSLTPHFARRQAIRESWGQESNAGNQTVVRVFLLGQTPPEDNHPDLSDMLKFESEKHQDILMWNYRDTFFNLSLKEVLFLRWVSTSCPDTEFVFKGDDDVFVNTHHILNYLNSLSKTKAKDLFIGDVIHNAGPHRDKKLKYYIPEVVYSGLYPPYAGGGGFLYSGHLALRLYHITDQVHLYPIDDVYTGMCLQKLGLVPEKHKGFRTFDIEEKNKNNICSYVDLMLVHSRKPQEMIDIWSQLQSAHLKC

[3] = target: T2, β1,3-N-acetylglucosaminyltransferase 2 (B3GNT2); assay: crystal structure ([…] Å) and SPR steady-state affinity; format: binding
[4] = target: human B3GNT2 luminal domain (construct of the analytical size exclusion chromatography, limits not told) (human); assay: SEC; analytical size exclusion chromatography, Superdex 200 10/300, 20 mM Hepes-NaOH pH 7.5 with 150 mM NaCl (buffer C) or 250 mM NaCl, 50 mM imidazole, 1 mM MgCl2, 0.5 mM DTT (buffer D); Bio-Rad molecular weight standards
[5] = target: the molecule itself; assay: crystal structure; sitting/hanging-drop vapor diffusion at 4 °C, 24% PEG1500, 20% glycerol; apo, soaked or co-crystallised with UDP, UDP-GlcNAc, LacNAc; dimer related by crystallographic symmetry

## CC(=O)N[C@H]1C(O)O[C@H](CO)[C@@H](O[C@@H]2O[C@H](CO)[C@H](O)[C@H](O)[C@H]2O)[C@@H]1O (stereo partly drawn) [LacNAc]
[1]
  Kd: 8990 ± 1750 µM

## CC(=O)N[C@H]1[C@@H](OP(=O)(O)OP(=O)(O)OC[C@H]2O[C@@H](n3ccc(=O)[nH]c3=O)[C@H](O)[C@@H]2O)O[C@H](CO)[C@@H](O)[C@@H]1O [UDP-GlcNAc]
[2]
  Kd: ~140 µM

## O=c1ccn([C@@H]2O[C@H](COP(=O)(O)OP(=O)(O)O)[C@@H](O)[C@H]2O)c(=O)[nH]1 [UDP]
[3]
  Kd: ~260 µM

## human B3GNT2 luminal domain (construct of the analytical size exclusion chromatography, limits not told) (domain or fragment)
[4]
  stoichiometry N: 2

B1: human B3GNT2 luminal domain (Lys45–Cys397) (domain or fragment, UniProt Q9NY97 45-397, looked up)
chain: KEKFWKISTPPEAYWNREQEKLNRQYNPILSMLTNQTGEAGRLSNISHLNYCEPDLRVTSVVTGFNNLPDRFKDFLLYLRCRNYSLLIDQPDKCAKKPFLLLAIKSLTPHFARRQAIRESWGQESNAGNQTVVRVFLLGQTPPEDNHPDLSDMLKFESEKHQDILMWNYRDTFFNLSLKEVLFLRWVSTSCPDTEFVFKGDDDVFVNTHHILNYLNSLSKTKAKDLFIGDVIHNAGPHRDKKLKYYIPEVVYSGLYPPYAGGGGFLYSGHLALRLYHITDQVHLYPIDDVYTGMCLQKLGLVPEKHKGFRTFDIEEKNKNNICSYVDLMLVHSRKPQEMIDIWSQLQSAHLKC
modifications: N-glycans assigned at Asn127, Asn173 and Asn219
notes: human B3GNT2 (β-1,3-N-acetylglucosaminyltransferase 2), UniProt Q9NY97, luminal domain, residues Lys45–Cys397; Expressed with an N-terminal gp64 secretion signal peptide; 8×His tag cleaved by TEV protease; Used for all structures except the iodide derivative; also called B3GNT2 Lys45-Cys397; B3GNT2_apo; source: sf9 cells (baculovirus), secreted into medium, purified (Ni-NTA, size exclusion …)
[5]
  binding result: binds

B2: human B3GNT2 luminal domain (Ser31–Cys397) (domain or fragment, UniProt Q9NY97 31-397, looked up)
chain: SSQEKNGKGEVIIPKEKFWKISTPPEAYWNREQEKLNRQYNPILSMLTNQTGEAGRLSNISHLNYCEPDLRVTSVVTGFNNLPDRFKDFLLYLRCRNYSLLIDQPDKCAKKPFLLLAIKSLTPHFARRQAIRESWGQESNAGNQTVVRVFLLGQTPPEDNHPDLSDMLKFESEKHQDILMWNYRDTFFNLSLKEVLFLRWVSTSCPDTEFVFKGDDDVFVNTHHILNYLNSLSKTKAKDLFIGDVIHNAGPHRDKKLKYYIPEVVYSGLYPPYAGGGGFLYSGHLALRLYHITDQVHLYPIDDVYTGMCLQKLGLVPEKHKGFRTFDIEEKNKNNICSYVDLMLVHSRKPQEMIDIWSQLQSAHLKC
modifications: N-glycans assigned at Asn127, Asn173 and Asn219
notes: human B3GNT2 (β-1,3-N-acetylglucosaminyltransferase 2), UniProt Q9NY97, luminal domain, residues Ser31–Cys397; Expressed with an N-terminal gp64 secretion signal peptide; 8×His tag cleaved by TEV protease; Used for the iodide derivative structure (SAD phasing, 2.50 Å); also called B3GNT2 Ser31-Cys397; iodide derivative; source: sf9 cells (baculovirus), secreted into medium, purified (Ni-NTA, size …)
[5]
  binding result: binds

Source: PMC7948737, “Structures and mechanism of human glycosyltransferase β1,3-N-acetylglucosaminyltransferase 2 (B3GNT2), an important player in immune homeostasis” (The Journal of Biological Chemistry, 2020)
